How the values were obtained:
[1] = tested on: C57BL/6 male mice; experiment: Body weight and adipose tissue fat weights of mice fed normal or high-fat diet with 8PN for 8 weeks; type: in vivo; conditions: for increase in the fat weight of the subcutaneous adipose tissue: vs Group 4, FIG. 2; for increase in the fat weight of the brown adipose tissue: vs Group 4, FIG. 3; for increase in the fat weight of the mesenteric adipose tissue: vs Group 4, FIG. 4; for increase in the fat weight of the perirenal adipose tissue: vs Group 4, FIG. 5; for increase in the fat weight of the epididymal adipose tissue: vs Group 4, FIG. 6; for increase in the fat weight of the white adipose tissue: vs Group 4, total of adipose tissue other than brown, FIG. 7
From the text: (§1) C57BL/6 male mice (available from Japan SLC, Inc.) were arranged into the following six groups of six mice each. Note that, 8-prenylnaringenin (may be described herein as 8PN) was used as the prenylflavonoid of the present embodiment. • (Group 1) Group that ingested a normal diet without the addition of 8PN • (Group 2) Group that ingested a normal diet with the addition of 8PN (final concentration: 0.0005%) • (Group 3) Group that ingested a normal diet with the addition of 8PN (final concentration: 0.005%) • (Group 4) Group that ingested a high-fat diet without the addition of 8PN • (Group 5) Group that ingested a high-fat diet with the addition of 8PN (final concentration: 0.0005%) • (Group 6) Group that ingested a high-fat diet with the addition of 8PN addition (final concentration: 0.005%)
(§2) AIN-93M feed was used as the normal diet (control diet), and AIN-93M feed containing 30% lard was used as the high-fat diet. These feeds were mixed with 8PN for Group 2, Group 3, Group 5 and Group 6.
(§3) The mice were each raised in individual cages, were allowed to freely consume each feed and deionized water, and were raised for 8 weeks. The rearing environment included a temperature of 22±2° C., humidity without artificial control, and light-dark cycles alternated every 12 hours. After 8 weeks, the mice were slaughtered by drawing blood from the heart under co-anesthesia of sevoflurane and somnopentyl, after which each mouse was weighed to measure the body weight. Next, subcutaneous adipose tissue, brown adipose tissue, mesenteric adipose tissue, perirenal adipose tissue, and epididymal adipose tissue were extracted from each mouse, and the fat weight in each tissue was measured by weighing with a scale. The total weight of adipose tissue other than the brown adipose tissue was calculated as the weight of white adipose tissue from the extracted fat.

[2] = reported, Non-Patent Document 1; cited from earlier work
[3] = target: T1, pig-derived pancreatic lipase II (Sus scrofa, UniProt P00591); experiment: Pancreatic lipase activity inhibition (triolein substrate, free fatty acids by NEFA C-Test); type: biochemical; conditions: 8PN final concentration 1.0, 2.0, 4.0, 7.0 or 10.0 mg/mL; 37° C., 30 minutes; FIG. 12
T1 construct: purchased Sigma
T1 sequence (P00591 1-450): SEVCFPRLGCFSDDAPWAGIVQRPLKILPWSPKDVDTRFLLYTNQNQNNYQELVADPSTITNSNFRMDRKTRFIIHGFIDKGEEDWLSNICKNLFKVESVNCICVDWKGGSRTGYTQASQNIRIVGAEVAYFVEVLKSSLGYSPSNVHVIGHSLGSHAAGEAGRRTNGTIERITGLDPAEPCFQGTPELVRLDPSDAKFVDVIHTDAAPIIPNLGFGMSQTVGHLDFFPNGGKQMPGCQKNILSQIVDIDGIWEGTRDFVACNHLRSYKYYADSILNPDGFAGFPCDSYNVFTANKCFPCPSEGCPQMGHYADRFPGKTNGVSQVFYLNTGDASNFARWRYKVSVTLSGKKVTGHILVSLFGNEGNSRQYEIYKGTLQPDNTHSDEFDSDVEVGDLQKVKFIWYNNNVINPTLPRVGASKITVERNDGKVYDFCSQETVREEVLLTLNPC
Procedure: An enzyme solution was prepared by dissolving pig-derived pancreatic lipase II (available from Sigma) in a 100 mM Tris-HCl buffer solution (pH 7.0) to make a final concentration of 250 μg/mL. In addition, 80 mg of triolein, 10 mg of lecithin, and 5 mg of sodium cholate were dissolved in 9 mL of a 100 mM tris-HCl buffer solution (pH 7.0), and the mixture was subjected to ultrasonic treatment for 10 minutes to prepare a substrate solution that was a homogeneous suspension. […] The reaction was stopped by a heating treatment at 100° C. for 2 minutes, and the amount of free fatty acids was measured through absorbance at a wavelength of 550 nm using the NEFA C-Test Wako Kit (available from Fujifilm Wako Pure Chemical Corporation). […]
Also note that a control was prepared in the same manner as described above with the exception that DMSO was used instead of 8PN. […] The lipase activity inhibition rate was calculated by the following calculation equation (1). Lipase activity inhibition rate (%)={1−((B−A)/(C−A))}×100 (1) • A: Absorbance of blank • B: Absorbance of test reaction solution • C: Absorbance of control

[4] = tested on: C57BL/6 male mice; experiment: Thigh muscle weight of mice fed normal or high-fat diet with 8PN; type: in vivo; conditions: 8 weeks, p<0.05, FIG. 11
From the text: as §1, §2, §3
Example 3 was implemented in the same manner as Example 1 up to the slaughtering of the mice. At the time of the slaughtering, the thigh muscles were removed from each mouse, and the weight of each muscle was measured by weighing with a scale.

[5] = reported, Patent Document 2; cited from earlier work
[6] = tested on: C57BL/6 male mice; experiment: Plasma glucose, cholesterol and insulin of mice fed high-fat diet with 8PN; type: in vivo; conditions: 8 weeks; for increase in the blood concentration of glucose: vs Group 4, FIG. 8; for increase in the blood concentration of cholesterol: vs Group 4, FIG. 9; for increase in the blood concentration of insulin: vs Group 4, FIG. 10
From the text: as §1, §2, §3
Example 2 was carried out in the same manner as Example 1 up to the slaughtering of the mice. Blood was drawn from each mouse at the time of slaughtering and was centrifuged at 5000 rpm for 10 minutes, and plasma was obtained from the supernatant. The amount of glucose was measured using the Glucose CII Test Wako Kit (available from Fujifilm Wako Pure Chemical Corporation), and the amount of insulin was measured using the LBIS (trade name) Mouse Insulin ELISA Kit (RTU) (available from Fujifilm Wako Pure Chemical Corporation). In addition, the amount of cholesterol was measured using the LabAssay Cholesterol Kit (available from Fujifilm Wako Pure Chemical Corporation).

[7] = reported, Patent Document 1; cited from earlier work
[8] = tested on: rats; conditions: administration to rats; reported, Non-Patent Document 3; cited from earlier work
[9] = tested on: 3T3-L1 cells; conditions: reported, Non-Patent Document 2; cited from earlier work
[10] = tested on: SREBP; conditions: in rats; reported, Non-Patent Document 4; cited from earlier work
[11] = Group 5: high-fat diet with 8PN 0.0005%
[12] = Group 6: high-fat diet with 8PN 0.005%

With `CC(C)=CCc1c(O)cc(O)c2c1O[C@H](c1ccc(O)cc1)CC2=O` [8PN, 8-prenylnaringenin] the “increase in body weight” value ([1]; Group 5: high-fat diet with 8PN 0.0005%, vs Group 4 (high-fat diet without 8PN), FIG. 1) was “suppressed”, the “increase in the fat weight of the subcutaneous adipose tissue” value [1, 11] was “suppressed” and the “increase in the fat weight of the brown adipose tissue” value [1, 11] was “suppressed”. The “increase in the fat weight of the mesenteric adipose tissue” value [1, 11] was “suppressed”, the “increase in the fat weight of the perirenal adipose tissue” value [1, 11] was “suppressed” and the “increase in the fat weight of the epididymal adipose tissue” value [1, 11] was “suppressed”. For the same compound, the “increase in the fat weight of the white adipose tissue” value [1, 11] was “suppressed”, the “increase in body weight” value ([1]; Group 6: high-fat diet with 8PN 0.005%, vs Group 4, FIG. 1) was “suppressed” and the “increase in the fat weight of the subcutaneous adipose tissue” value [1, 12] was “suppressed”. The “increase in the fat weight of the brown adipose tissue” value [1, 12] was “suppressed”, the “increase in the fat weight of the mesenteric adipose tissue” value [1, 12] was “suppressed” and the “increase in the fat weight of the perirenal adipose tissue” value [1, 12] was “suppressed”. For the same compound, the “increase in the fat weight of the epididymal adipose tissue” value [1, 12] was “suppressed”, the “increase in the fat weight of the white adipose tissue” value [1, 12] was “suppressed” and the estrogen activity [2] was “exhibits”. The “lipase activity inhibition rate” value [3] was “increased in a manner dependent on the concentration of 8PN”, the “weight of the thigh muscle” value ([4]; Group 2: normal diet with 8PN 0.0005%, vs Group 1 (normal diet without 8PN)) was “increased” and the “weight of the thigh muscle” value ([4]; Group 3: normal diet with 8PN 0.005%, vs Group 1) was “increased”. The “weight of the thigh muscle” value ([4]; Group 5: high-fat diet with 8PN 0.0005%, vs Group 4) was “increased”, the “weight of the thigh muscle” value ([4]; Group 6: high-fat diet with 8PN 0.005%, vs Group 4) was “increased” and the “suppression of muscle disuse atrophy” value [5] was “exhibits”. For the same compound, the “increase in the blood concentration of glucose” value [6, 11] was “suppressed”, the “increase in the blood concentration of cholesterol” value [6, 11] was “suppressed” and the “increase in the blood concentration of insulin” value [6, 11] was “suppressed”. For the same compound, the “increase in the blood concentration of glucose” value [6, 12] was “suppressed”, the “increase in the blood concentration of cholesterol” value [6, 12] was “suppressed” and the “increase in the blood concentration of insulin” value [6, 12] was “suppressed”. For the same compound, the angiogenesis inhibition [7] was “exhibits”.
In the case of `COc1cc(O)c(CC=C(C)C)c(O)c1C(=O)/C=C/c1ccc(O)cc1` [xanthohumol], the weight gain [8] is given as “suppressed”, the “differentiation of 3T3-L1 cells” value [9] is given as “has an effect of suppressing” and the lipid synthesis [9] is given as “an effect of suppressing”. The “SREBP activation and lipid synthesis” value [10] was “suppresses”.
